From article PMC6593967, “The development and prevalidation of an in vitro mutagenicity assay based on MutaMouse primary hepatocytes, Part II: Assay performance for the identification of mutagenic chemicals” (Environmental and Molecular Mutagenesis, 2019)
“And” between values parts separate entries of the source, which are not always exact repeats. Identical values can stand only once. “Also recorded” adds a separate entry of the source. Like-named read-outs stand apart in the source and are kept apart here.

Tests used:
[1] = tested on: MutaMouse FE1 lung epithelial cells; settings: cited from earlier work
[2] = tested on: MutaMouse primary hepatocytes (PHs); experiment: MutaMouse PH in vitro gene mutation assay (lacZ mutant frequency, P-Gal positive selection); settings: for Significant MF increase over concurrent vehicle control at any concentration: Bonferroni-corrected contrasts; for Overall treatment effect on MF (Chi-squared test): P < 0.05 significant
[3] = tested on: MutaMouse primary hepatocytes (PHs); experiment: Cytotoxicity by relative increase in nuclear counts (RINC), flow cytometry; format: cell-based, mouse
Procedure: Cytotoxicity was measured using the relative increase in nuclear counts (RINC) metric. […] To normalize nuclei counts, 150 μL of a suspension of 6 μm fluorescently labeled polystyrene microspheres was added to each sample of lysate. […] Each microsphere‐lysate sample was diluted 1:10 prior to flow cytometric analysis. Data were acquired using a BD Biosciences FACScalibur flow cytometer (BD Biosciences, Mississauga, Ontario) equipped with a 488 nm laser. Instrumentation settings and data acquisition were facilitated using CellQuest Pro software (BD Biosciences). Data analysis was performed using Flowing Software version 2.5.1 (Turku Centre for Biotechnology, Turku, Finland). SYTOX® green and bead fluorescence emission were captured in the FL1 channel (530/30 band‐pass filter). Events were scored as nuclei following the application of key criteria (i.e., within a side scatter (SSC) vs forward scatter (FSC) region, within a region that excludes doublets, and within an FSC vs. FL1 region).

[4] = tested on: pUR288 lacZ Plasmid Mouse PHs; settings: cited from earlier work; for Response in pUR288 lacZ Plasmid Mouse PHs gene mutation assay: ref citations provided
[5] = tested on: tk locus; settings: S9; PhIP: human TK6 assay; 3-NBA: tk locus in human lymphoblast lines h1A1v2 and MCL-5; ref citations provided; cited from earlier work
[6] = tested on: MutaMouse; settings: cited from earlier work; for Relative potency in the MutaMouse gene mutation assay in vivo: ref Gocke et al., 2009, Luijten et al., 2016, Hanna, 2018, Long et al.
[7] = tested on: p53‐functional human cells; settings: ref NTP, 1982, 1986, Kirkland et al., 2008, Fowler et al., 2012a, 2016; cited from earlier work
[8] = tested on: hematopoietic tissues (e.g., the bone marrow and blood); settings: cited from earlier work
[9] = ref NTP, 1982, 1986, Kirkland et al., 2008, Fowler et al., 2012a, 2016; cited from earlier work
[10] = tested on: p53‐deficient hamster cells; settings: ref NTP, 1982, 1986, Kirkland et al., 2008, Fowler et al., 2012a, 2016; cited from earlier work
[11] = tested on: liver; design: method as in Rompelberg et al., 1996a; Rompelberg et al., 1996b; settings: ref Rompelberg et al., 1996a, 1996b; cited from earlier work
[12] = ref White et al., 2003, Hanna, 2018
[13] = 6 h exposure, 72 h sampling, no exogenous S9
[14] = BMR 100% (twofold MF increase), PROAST covariate analysis
[15] = lower limit of 90% confidence interval of BMD100
[16] = maximum response, concentration not given
[17] = upper limit of 90% confidence interval of BMD100
[18] = at or above top concentrations tested

CC(=O)Nc1ccc2c(c1)Cc1ccccc1-2 [2‐AAF, 2‐acetylaminofluorene]
Response in MutaMouse FE1 gene mutation assay ([1]; S9, ref citations provided): Positive (±S9)
MF fold increase in MutaMouse FE1 cells [1, 12]: ~ 1.7 fold
MF fold-increase over control ([2]; 5 μg/mL, 6 h exposure, 72 h sampling): 2.6 fold
Response in MutaMouse PH gene mutation assay [2, 13]: positive responses
BMD100, Exponential model [2, 14]: 1.9 µg/mL
BMD100, Hill model [2, 14]: 1.9 µg/mL
BMDL, Exponential model [2, 15]: 0.964 µg/mL
BMDL, Hill model [2, 15]: 0.964 µg/mL
MF fold increase over control in MutaMouse PHs [2, 16]: 2.6 fold
Relative mutagenic potency by BMD100 covariate analysis ([2]; ranking of positive chemicals): less potent than 3‐NBA and BaP
BMDU, Exponential model [2, 17]: 3.96 µg/mL
BMDU, Hill model [2, 17]: 3.96 µg/mL

aflatoxin B1 [AFB1]
RINC [3]: 0.6 and 0.3
MF fold increase in MutaMouse FE1 cells [1]: ~ three
Response in MutaMouse FE1 gene mutation assay [1]: Positive (±S9)
BMD100, Exponential model [2]: 0.47 µg/mL
BMD100, Hill model [2]: 0.47 µg/mL
BMDL, Exponential model [2]: 0.193 µg/mL
BMDL, Hill model [2]: 0.193 µg/mL
BMDU, Exponential model [2]: 1.47 µg/mL
BMDU, Hill model [2]: 1.47 µg/mL
MF fold increase over control in MutaMouse PHs [2]: 3.6 fold
MF fold-increase over control [2]: 3.6 fold and 2.5 fold
Relative mutagenic potency by BMD100 covariate analysis [2]: most potent
Response in MutaMouse PH gene mutation assay [2]: positive responses

O=C1c2ccccc2-c2ccc([N+](=O)[O-])c3cccc1c23 [3‐NBA, 3‐nitrobenzanthrone]
Cytotoxicity (RINC) in words [3, 18]: sharp increase in cytotoxicity
Response in MutaMouse FE1 gene mutation assay ([1]; S9, ref citations provided): Positive (±S9)
MF fold increase above solvent control in MutaMouse FE1 cells ([1]; ref Arlt et al., 2008): ~ five
MF fold-increase over control ([2]; 0.5 μg/mL, 6 h exposure, 72 h sampling): 8.2 fold
Response in MutaMouse PH gene mutation assay [2, 13]: positive results; also recorded: positive responses
BMD100, Exponential model [2, 14]: 0.15 µg/mL
BMD100, Hill model [2, 14]: 0.15 µg/mL
BMDL, Exponential model [2, 15]: 0.0689 µg/mL
BMDL, Hill model [2, 15]: 0.0689 µg/mL
MF fold increase over control in MutaMouse PHs [2, 16]: 3.6 fold
Relative mutagenic potency by BMD100 covariate analysis ([2]; ranking of positive chemicals): most potent
BMDU, Exponential model [2, 17]: 0.373 µg/mL
BMDU, Hill model [2, 17]: 0.363 µg/mL

OC[C@@H](O)[C@@H](O)[C@H](O)[C@H](O)CO [D‐Mannitol]
Response in pUR288 lacZ Plasmid Mouse PHs gene mutation assay [4]: Negative
Response in MLA [5]: Negative (±S9)
Response in MutaMouse FE1 gene mutation assay ([1]; S9, ref citations provided): Negative (−S9)
Response in MutaMouse PH gene mutation assay [2, 13]: Negative

CN(C)N=O [DMN, dimethylnitrosamine]
MF fold-increase over control ([2]; 200 μg/mL, 6 h exposure, 72 h sampling): 14.4 fold
Response in MutaMouse PH gene mutation assay [2, 13]: positive responses
BMD100, Exponential model [2, 14]: 7.6 µg/mL
BMD100, Hill model [2, 14]: 7.6 µg/mL
BMDL, Exponential model [2, 15]: 3.18 µg/mL
BMDL, Hill model [2, 15]: 3.18 µg/mL
MF fold increase over control in MutaMouse PHs [2, 16]: 14.4 fold
Relative mutagenic potency by BMD100 covariate analysis ([2]; ranking of positive chemicals): less potent than 3‐NBA and BaP
BMDU, Exponential model [2, 17]: 21.5 µg/mL
BMDU, Hill model [2, 17]: 16.8 µg/mL

CCN(N=O)C(N)=O [ENU, N‐ethyl‐N‐nitrosourea]
Relative potency in the MutaMouse gene mutation assay in vivo ([6]; liver and bone marrow): more potent than BaP
Relative potency in the MutaMouse gene mutation assay in vivo ([6]; small intestine, versus BaP): of equivalent potency
MF fold increase in pUR288 lacZ plasmid mouse PHs ([4]; ref Luijten et al., 2016): ~ 4 fold
Response in pUR288 lacZ Plasmid Mouse PHs gene mutation assay [4]: Positive
Response in MutaMouse FE1 gene mutation assay ([1]; S9, ref citations provided): Positive (−S9)
MF fold increase in MutaMouse FE1 cells ([1]; ref White et al., 2003): ~ 6 fold
MF fold-increase over control ([2]; 1,000 μg/mL, 6 h exposure, 72 h sampling): 4.2 fold
Response in MutaMouse PH gene mutation assay [2, 13]: Positive
BMD100, Exponential model [2, 14]: 76 µg/mL
BMD100, Hill model [2, 14]: 76 µg/mL
BMDL, Exponential model [2, 15]: 36.6 µg/mL
BMDL, Hill model [2, 15]: 36.6 µg/mL
MF fold increase over control in MutaMouse PHs [2, 16]: 4.2 fold
BMDU, Exponential model [2, 17]: 178 µg/mL
BMDU, Hill model [2, 17]: 170 µg/mL

Cn1c(N)nc2ncc(-c3ccccc3)cc21 [PhIP, 2‐amino‐1‐methyl‐6‐phenylimidazo[4,5‐b]pyridine]
Response in MutaMouse FE1 gene mutation assay ([1]; S9, ref citations provided): Positive (+S9)
MF fold increase in MutaMouse FE1 cells [1, 12]: ~ 5.5 fold
MF fold-increase over control ([2]; 10 μg/mL, 6 h exposure, 72 h sampling): 3.7 fold
Response in MutaMouse PH gene mutation assay [2, 13]: positive responses
BMD100, Exponential model [2, 14]: 2.6 µg/mL
BMD100, Hill model [2, 14]: 2.6 µg/mL
BMDL, Exponential model [2, 15]: 1.05 µg/mL
BMDL, Hill model [2, 15]: 1.05 µg/mL
MF fold increase over control in MutaMouse PHs [2, 16]: 3.7 fold
Relative mutagenic potency by BMD100 covariate analysis ([2]; ranking of positive chemicals): less potent than 3‐NBA and BaP
BMDU, Exponential model [2, 17]: 7.8 µg/mL
BMDU, Hill model [2, 17]: 7.05 µg/mL

CC(C)(C)c1cc(O)ccc1O [TBHQ, tertiary butylhydroquinone]
Result in in vitro micronucleus assay [7]: negative results
Cytotoxicity (RINC) in words [3]: relatively high RINC obtained at the top concentration
Response in MutaMouse PH gene mutation assay [2, 13]: Negative
Significant MF increase over concurrent vehicle control at any concentration [2]: Neither TBHQ nor eugenol yielded a significant increase in MF
Genotoxicity result in vivo ([8]; in vivo): negative results in vivo
Result in in vitro chromosome aberration test [9]: positive
Result for micronucleus [10]: positive

COc1ccc2nc3cc(Cl)ccc3c(NCCCNCCCl)c2c1.Cl.Cl [ICR 191, 6‐chloro‐9‐[3‐(2‐chloroethylamino)propylamino]‐2‐methoxyacridine dihydrochloride]
Response in MutaMouse PH gene mutation assay [2, 13]: negative result
Significant MF increase over concurrent vehicle control at any concentration [2]: did not yield a significant increase in MF
Overall treatment effect on MF (Chi-squared test) [2]: nor was a significant treatment effect detected

C=CCc1ccc(O)c(OC)c1 [Eugenol]
Result in in vivo MutaMouse assay ([6]; liver, ref Rompelberg et al., 1996a, Rompelberg et al., 1996b): negative results
Result in in vitro micronucleus assay [7]: negative results
Cytotoxicity (RINC) in words [3, 18]: could not be tested at higher concentrations due to cytotoxicity; also recorded: too cytotoxic to test at higher concentrations
Response in MutaMouse PH gene mutation assay [2, 13]: equivocal
Significant MF increase over concurrent vehicle control at any concentration [2]: absence of a significant response at any concentration tested; also recorded: Neither TBHQ nor eugenol yielded a significant increase in MF
Overall treatment effect on MF (Chi-squared test) [2]: significant result for the overall treatment effect
Overall treatment effect on MF (Chi-squared test) ([2]; listed as eugenol): significant treatment effect
Genotoxicity result in vivo ([8]; data limited, mainly hematopoietic tissues, ref Kirkland et al., 2016): negative results in vivo
Result in in vitro chromosome aberration test [9]: positive
Result for micronucleus [10]: positive
Result in UDS assay [11]: negative results

CC1(C)S[C@@H]2[C@H](NC(=O)[C@H](N)c3ccccc3)C(=O)N2[C@H]1C(=O)O [Ampicillin trihydrate]
Response in MutaMouse PH gene mutation assay [2, 13]: Negative
